From patent US10485769B2, “Cholesteryl ester transfer protein (CETP) inhibition in the treatment of cancer” (KING ABDULLAH UNIVERSITY OF SCIENCE AND TECHNOLOGY, priority 2015, dated 2019)
Like-named read-outs stand apart in the source and are kept apart here.

Key:
MCF-7 cells [1] = experiment: MTT assay, viability of MCF-7 cells; details: for effect on cell viability: 1 and 2.5 μM, 24 h
Experimental: FIG. 1: MTT and APOPercentage assays to assess the differential cytotoxicity and apoptosis inducing potential of AP and PL in MCF-7 cells. Viability was determined using MTT assay after incubating the MCF-7 cells with different concentrations of AP and PL (A), at different time-points (B). The apoptosis inducing potential of 10 μM AP and PL in MCF-7 was determined by using APOPercentage assay performed at intervals of 2 and 6 h.
The activities of a compound described herein can be evaluated by methods known in the art, e.g., MTT (3-[4,5-dimethylthiazol-2-yl]-2,5-diphenyltetrazolium bromide) assay, APOPercentage, clonogenic assay, ATP assay, or Extreme Drug Resistance (EDR) assay. See Freuhauf, J. P. and Manetta, A., Chemosensitivity Testing in Gynecologic Malignancies and Breast Cancer 19, 39-52 (1994), which is incorporated by reference in its entirety. The results are then plotted to generate drug response curves, which allow IC50 values (the concentration of a compound required to inhibit 50% of the population of the treated cells) to be determined. […] In general, however, a dose can be in the range of from about 0.01 to about 10 mg/kg of body weight per day.
As a first step, MCF-7 cells were treated with 1, 2.5, 5 and 10 μM PL or AP for 24 h and percentage viability was determined after 24 h using the MTT assay. […] Next the effect of 10 μM PL drug on cell viability over time was determined. […] The percentage of cells undergoing apoptosis at the early time points i.e. 2 and 6 h was determined by the APOPercentage assay. APOPercentage dye binds to extracellularly exposed phosphatidylserine (PS) on the plasma membrane of apoptotic cells.

MCF-7 CETP siRNA cells [2] = experiment: MMP, caspase-3/7 activity and apoptosis in CETP knockdown MCF-7 cells; format: cell-based, human; details: for caspases-3/7 activity / increase of level of apoptosis: 10 μM PL or AP; for caspases-3/7 activity: CETP knockdown; for increase of level of apoptosis: MCF-7 CETP siRNA cells; for reduction in MMP: 10 μM, CETP knockdown compared to Ctrl siRNA cells
Experimental: FIG. 10: The effect of CETP mRNA silencing on MMP (A), Capase-3/7 activity (B) and apoptosis in MCF-7 (C) and BJ (D) untransfected, cntl siRNA and CETP knockout cells after treatment with 10 μM PL or AP. Values represent the means±SD of three independent experiments.
FIG. 12: The effect of CETP mRNA knockout on Capase-3/7 activity (A) and apoptosis (B) in MCF-7 cntl siRNA and CETP knockout cells after treatment with 25 μM tamoxifen for 24 h. Values represent the means±SD of three independent experiments.
Since, as shown above, CETP is required for optimal growth of MCF-7 cells, we further hypothesized that CETP may help cancer cell to resist/escape apoptotic signals thus preventing cell death. Several apoptotic markers such as MOMP, phosphatidylserine exposure and caspase-3/7 activity were tested to establish a link between CETP and apoptosis.
Next, we intended to see if CETP silencing increased sensitivity of MCF-7 cells to apoptosis.
To test if effect of CETP knockout on apoptosis in MCF-7 is limited to AP, we treated the CETP knockout MCF-7 cells with tamoxifen (a known first line drug for breast cancer treatment). […] This observation was not limited to PL and AP as similar observations were made in CETP knockdown cells treated with tamoxifen (FIG. 12).

MCF-7 CETP siRNA cells [3] = experiment: Total cholesterol in CETP knock-out MCF-7 cells, Amplex Red; format: cell-based, human; details: 10 μM
Experimental: FIG. 8: Levels of total cholesterol in MCF-7 control (cntl) siRNA and CETP knock-out cells after treatment with 10 μM PL or AP were determined with the Amplex Red assay kit. Values represent the means±SD of three independent experiments.
We measured the amount of cholesterol in CETP knock-out MCF-7 untreated and/or treated with 10 μM AP and PL. […] (FIG. 8).

MCF-7 cells [4] = experiment: APOPercentage assay, apoptosis in MCF-7 cells; format: cell-based, human; details: 10 μM
Experimental: FIG. 5: Cholesterol depletion by PL and AP. BJ, BT20 and MCF-7 cells were treated with 10 μM PL or AP for 2 h and cholesterol levels were determined with the Amplex Red Cholesterol kit as per manufacturer's instructions. Cells treated with 5 mg/ml MBCD was used as a positive control and fluorescence was measured with a Tecan plate reader. MCF-7 cells were pre-incubated with 1 mM cholesterol for 1 h followed by treatment with 10 μM PL or AP for 2 h (A). Apoptosis was determined by flow cytometry with the APOPercentage kit or Cells treated with MBCD and 5 mM H2O2 served as positive controls (B). Values represent the means±SD of three independent experiments.
Next we asked if addition of cholesterol can rescue MCF-7 cells from undergoing apoptosis when treated with PL or AP.

CETP = biological target: T1, CETP (Homo sapiens, UniProt P11597); experiment: Thermal shift assay (TSA) in MCF-7 cells; format: binding; details: 10 μM, two hours, 56° C. to 70° C.; untreated decreases around 64° C.
T1 construct: endogenous in cells; host or cells: MCF-7
T1 sequence (P11597 18-493): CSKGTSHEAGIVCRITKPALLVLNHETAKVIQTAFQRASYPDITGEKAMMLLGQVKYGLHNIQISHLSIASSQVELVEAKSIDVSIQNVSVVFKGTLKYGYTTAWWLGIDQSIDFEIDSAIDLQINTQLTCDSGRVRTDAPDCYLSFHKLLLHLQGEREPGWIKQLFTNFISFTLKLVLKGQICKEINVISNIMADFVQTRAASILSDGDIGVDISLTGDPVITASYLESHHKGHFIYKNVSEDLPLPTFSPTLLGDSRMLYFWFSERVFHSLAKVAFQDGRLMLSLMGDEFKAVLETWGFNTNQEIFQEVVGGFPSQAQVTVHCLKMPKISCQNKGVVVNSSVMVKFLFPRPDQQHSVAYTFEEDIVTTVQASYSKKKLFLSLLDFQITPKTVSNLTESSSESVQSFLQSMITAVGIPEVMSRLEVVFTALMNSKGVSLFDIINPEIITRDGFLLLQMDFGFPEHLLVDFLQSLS
Experimental: FIG. 14: Illustration of the amount of stabilized CETP protein in the presence of compounds using TSA. MCF-7 cells were left untreated (Untx) and were treated with 10 μM of AP/PL for two hours. TSA was performed using temperature range 56° C. to 70° C. with 2° C. intervals. The western blotting was performed after the assay and CETP was detected. The experiment was performed in duplicate.
Thermal shift assay (TSA) captures the drug protein binding using the fact that the thermostability of the protein is changed after ligand binding. We did three runs of TSA [20] to identify direct binding of AP with CETP (FIG. 14). […] Further studies are needed to study the effects of thermostability on function of CETP.

BJ cells = experiment: BJ cell morphology on treatment (lipid raft staining experiment); format: cell-based, human
[5] = 2 h, after pre-incubation with 1 mM cholesterol for 1 h
[6] = 2 h, without addition of cholesterol

Compound	effect on cell viability (MCF-7 cells [1])	viability at 10 µM (MCF-7 cells [1]; Homo sapiens, MCF7, 6 h, read-out: cell viability reduced to) [%]	caspases-3/7 activity (MCF-7 CETP siRNA cells [2])	increase of level of apoptosis (MCF-7 CETP siRNA cells [2]) [%]	reduction in MMP (MCF-7 CETP siRNA cells [2]) [%]	total cholesterol in knock-out cells versus control siRNA cells (MCF-7 CETP siRNA cells [3])	level of apoptosis (MCF-7 cells [4]; 2 h) [%]	apoptosis (MCF-7 cells [4]; [5])	apoptosis (MCF-7 cells [4]; [6]) [%]	level of apoptosis (MCF-7 cells [4]; 6 h) [%]	thermostability of CETP protein (CETP)	effects on BJ cell morphology (BJ cells)	cell viability reduced to (MCF-7 cells [1]; 10 μM, as early as 6 h) [%]	effects on BJ cell morphology (BJ cells; treated with PL or AP)
CC1=CC(=O)c2c(O)cccc2C1=O [PL, 5-hydroxy-2-methyl-1,4-naphthoquinone, reference compound]	no significant effect	50	significantly increased	10	13	did not show results any different	~20	10%	30	~45	more stable even at 70 °C	no adverse effects		
CC(=O)Oc1cccc2c1C(=O)C=C(C)C2=O [AP, Acetyl Plumbagin]	no significant effect		significantly increased	10	17	did not show results any different	~20	negligible	20	~45	more stable even at 70 °C		50	no adverse effects
